In experiment [1] the test system is α-glucosidase. Particulars: cited from earlier work.
The subject of experiment [2] is α-amylase. Particulars: cited from earlier work.
For experiment [3] the following is noted: in vivo ref 49; cited from earlier work.
The test system of experiment [4] is α-Glucosidase (from Saccharomyces cerevisiae). Kind of experiment: Assay for α-glucosidase inhibitory activity. It counts as biochemical. Particulars: for IC50: read-out: IC50 α-glucosidase, mean ± SD (n = 3); for α-glucosidase inhibitory activity compared to acarbose (in words): Figure 3, 150 μM, p < 0.05; for total activity α-glucosidase: total activity = amount (mg/kg)/IC50 (mg/mL).

Experiment [5] deals with T1, α-amylase (from the porcine pancreas) (Sus scrofa, UniProt P00690).
T1 sequence (P00690 16-511): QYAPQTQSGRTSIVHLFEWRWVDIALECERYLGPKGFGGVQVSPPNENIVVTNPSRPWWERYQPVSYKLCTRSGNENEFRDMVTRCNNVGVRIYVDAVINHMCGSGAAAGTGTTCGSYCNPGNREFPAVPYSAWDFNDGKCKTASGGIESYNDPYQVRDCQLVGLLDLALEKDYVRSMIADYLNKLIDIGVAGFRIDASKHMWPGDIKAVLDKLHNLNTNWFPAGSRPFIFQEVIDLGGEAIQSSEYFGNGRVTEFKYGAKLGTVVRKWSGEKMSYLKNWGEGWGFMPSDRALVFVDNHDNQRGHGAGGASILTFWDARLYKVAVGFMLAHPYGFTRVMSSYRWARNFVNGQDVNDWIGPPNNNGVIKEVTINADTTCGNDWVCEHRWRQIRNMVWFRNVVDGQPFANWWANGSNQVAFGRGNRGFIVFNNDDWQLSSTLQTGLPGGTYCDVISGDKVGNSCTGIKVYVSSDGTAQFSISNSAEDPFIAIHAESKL
Kind of experiment: biochemical. The class given is biochemical. Particulars: for IC50: IC50 α-amylase, mean ± SD (n = 3).

Experiment [6] relates to glycogen phosphorylase. The following applies: cited from earlier work.
In experiment [7] the test system is α-Glucosidase (from Saccharomyces cerevisiae). Kind of experiment: Inhibitory kinetics analysis against the α-glucosidase enzyme. It counts as biochemical. The following applies: Lineweaver–Burk plot analysis, sucrose substrate.
For experiment [8] the following is noted: STZ-induced diabetic rats ref 46; cited from earlier work.
Experiment [9] concerns glycogenic enzymes. The following applies: rats ref 47; cited from earlier work.

The structures appear in SMILES notation.

Consider four molecules from publication PMC7439263 (ACS Omega, 2020).

For the molecule `C[C@H]1[C@H](C)CC[C@]2(C(=O)O)CC[C@]3(C)C(=CC[C@@H]4[C@@]5(C)C[C@@H](O)[C@H](O)C(C)(C)[C@@H]5CC[C@]43C)[C@H]12` [corosoric acid], the “α-glucosidase inhibitory activity in vitro (in words)” value in [1] is “strong inhibitory activity”. In addition, the “α-amylase inhibitory activity in vitro (in words)” value in experiment [2] is reported as “strong inhibitory activity”. Also, the “post-challenge plasma glucose levels” value in experiment [3] is reported as “significant effect on lowering post-challenge plasma glucose levels”.

The IC50 is the concentration needed to halve the response being measured. In the case of `OCCc1ccc(O)c(O)c1` [hydroxytyrosol 7, hydroxytyrosol], the “α-glucosidase inhibitory activity at highest tested concentration” value in experiment [4] (1000 μM) was “less than 10%”. Moreover, the concentration for half-maximal inhibition (IC50) is over 1000 µM in experiment [4] and over 500 µM in experiment [5]. For the same molecule, the inhibition at 500 µM in [5] (read-out: α-amylase inhibitory activity at highest tested concentration) was under 10%.

As for `CC1(C)CC[C@]2(C(=O)O)CC[C@]3(C)C(=CC[C@@H]4[C@@]5(C)C[C@@H](O)[C@H](O)C(C)(C)[C@@H]5CC[C@]43C)[C@@H]2C1` [maslinic acid 2, maslinic acid], in experiment [4], the “α-glucosidase inhibitory activity compared to acarbose (in words)” value was “higher than that of acarbose”, the concentration for half-maximal inhibition (IC50) was 34.5 ± 1.4 µM and the “total activity α-glucosidase” value is 11042.9. In experiment [5], the “α-amylase inhibitory activity compared to acarbose (in words)” value is “acarbose had higher activity than them” and the IC50 was found to be 67 ± 5.4 µM. Also, the “total activity α-amylase” value in experiment [5] (total activity = amount (mg/kg)/IC50 (mg/mL)) is reported as 5678.2. Besides, the “blood glucose levels / glycogen phosphorylase inhibition” value in [6] is recorded as “reduce blood glucose levels by inhibiting glycogen phosphorylase”.

Turning to `CC1(C)CC[C@]2(C(=O)O)CC[C@]3(C)C(=CC[C@@H]4[C@@]5(C)CC[C@H](O)C(C)(C)[C@@H]5CC[C@]43C)[C@@H]2C1` [oleanolic acid 1, oleanolic acid], in experiment [4], the “α-glucosidase inhibitory activity compared to acarbose (in words)” value was “higher than that of acarbose” and the “total activity α-glucosidase” value is given as 5359.5. In addition, the “inhibition type against α-glucosidase” value in experiment [7] is recorded as “partial mixed inhibitor”. For the same molecule, the “inhibition type against α-glucosidase” value in [7] (listed as 1) is on record as “mixed-type”. For the same molecule, the blood glucose levels entry in experiment [8] is reported as “lower blood glucose levels”. Besides, the “glycogen levels and glycogenic enzymes” value in experiment [9] was “reduced glycogen levels and glycogenic enzymes”.
